# Data from patent publication US12599136B2, “Substituted isophthalic acid diamides and their use as herbicides” (Bayer Aktiengesellschaft, priority 2020, dated 2026).
# Legend:
# Type in all cases: in vivo
# Amaranthus retroflexus [1] = assay: Post-emergence herbicidal action against AMARE; conditions: visual assessment about 3 weeks after treatment
# Summary of the method: (§1)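 Greenhouse pot plants in sandy loam were sprayed at the one-leaf stage, 2 to 3 weeks after sowing, with WP or EC formulations as aqueous suspension or emulsion (600 to 800 l/ha water, 0.2% wetting agent). About 3 weeks later, damage was scored visually against untreated controls as % action (100% = dead, 0% = like control).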
# Echinochloa crus-galli [2] = assay: Pre-emergence herbicidal action against ECHCG; conditions: visual score after 3 weeks vs untreated controls
# Summary of the method: (§2)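 Visual rating at 3 weeks vs untreated pots; 0–100% scale, 100% = plants died. Treatment: aqueous WP/EC spray onto covering soil, 600–800 l/ha, 0.2% wetter, seeds in sandy loam.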
# Setaria viridis [3] = assay: Pre-emergence herbicidal action against SETVI
# Summary of the method: as §2
# Veronica persica [4] = assay: Pre-emergence herbicidal action against VERPE
# Summary of the method: as §2
# Echinochloa crus-galli [5] = assay: Post-emergence herbicidal action against ECHCG; conditions: visual assessment about 3 weeks after treatment
# Summary of the method: as §1
# Alopecurus myosuroides [6] = assay: Pre-emergence herbicidal action against ALOMY; conditions: visual score after 3 weeks vs untreated controls
# Summary of the method: as §2
# Amaranthus retroflexus [7] = assay: Pre-emergence herbicidal action against AMARE; conditions: visual score after 3 weeks vs untreated controls
# Summary of the method: as §2
# Viola tricolor [8] = assay: Pre-emergence herbicidal action against VIOTR
# Summary of the method: as §2
# Alopecurus myosuroides [9] = assay: Post-emergence herbicidal action against ALOMY
# Summary of the method: as §1
# Lolium rigidum [10] = assay: Post-emergence herbicidal action against LOLRI; conditions: 80 g/ha
# Summary of the method: as §1
# Polygonum convolvulus [11] = assay: Post-emergence herbicidal action against POLCO; conditions: 80 g/ha, visual assessment about 3 weeks after treatment
# Summary of the method: as §1
# Viola tricolor [12] = assay: Post-emergence herbicidal action against VIOTR
# Summary of the method: as §1
# Pharbitis purpurea [13] = assay: Pre-emergence herbicidal action against PHBPU; conditions: 320 g/ha; visual score after 3 weeks vs untreated controls
# Summary of the method: as §2
# Matricaria inodora [14] = assay: Post-emergence herbicidal action against MATIN; conditions: visual assessment about 3 weeks after treatment
# Summary of the method: as §1
# Stellaria media [15] = assay: Pre-emergence herbicidal action against STEME
# Summary of the method: as §2
# Lolium rigidum [16] = assay: Pre-emergence herbicidal action against LOLRI; conditions: 320 g/ha
# Summary of the method: as §2
# Abutilon theophrasti [17] = assay: Pre-emergence herbicidal action against ABUTH; conditions: visual score after 3 weeks vs untreated controls
# Summary of the method: as §2
# Cyperus esculentus [18] = assay: Pre-emergence herbicidal action against CYPES; conditions: visual score after 3 weeks vs untreated controls
# Summary of the method: as §2
# Abutilon theophrasti [19] = assay: Post-emergence herbicidal action against ABUTH
# Summary of the method: as §1
# Cyperus esculentus [20] = assay: Post-emergence herbicidal action against CYPES; conditions: visual assessment about 3 weeks after treatment
# Summary of the method: as §1
# Avena fatua [21] = assay: Pre-emergence herbicidal action against AVEFA; conditions: visual score after 3 weeks vs untreated controls
# Summary of the method: as §2
# Avena fatua [22] = assay: Post-emergence herbicidal action against AVEFA; conditions: visual assessment about 3 weeks after treatment
# Summary of the method: as §1
# Hordeum murinum [23] = assay: Post-emergence herbicidal action against HORMU
# Summary of the method: as §1
# Setaria viridis [24] = assay: Post-emergence herbicidal action against SETVI; conditions: visual assessment about 3 weeks after treatment
# Summary of the method: as §1
# Matricaria inodora [25] = assay: Pre-emergence herbicidal action against MATIN; conditions: visual score after 3 weeks vs untreated controls
# Summary of the method: as §2
# Pharbitis purpurea [26] = assay: Post-emergence herbicidal action against PHBPU; conditions: visual assessment about 3 weeks after treatment
# Summary of the method: as §1
# Polygonum convolvulus [27] = assay: Pre-emergence herbicidal action against POLCO; conditions: 320 g/ha
# Summary of the method: as §2
# Stellaria media [28] = assay: Post-emergence herbicidal action against STEME; conditions: visual assessment about 3 weeks after treatment
# Summary of the method: as §1
# Veronica persica [29] = assay: Post-emergence herbicidal action against VERPE; conditions: visual assessment about 3 weeks after treatment
# Summary of the method: as §1
# Hordeum murinum [30] = assay: Pre-emergence herbicidal action against HORMU; conditions: 320 g/ha; visual score after 3 weeks vs untreated controls
# Summary of the method: as §2
compound,measurement,setting,value
CCn1nnnc1NC(=O)c1ccc(C(F)(F)F)c(C(=O)N(C)CC2CC2)c1Cl [Example 2-126],Post-emergence action against AMARE in %,Amaranthus retroflexus [1]; 5 g/ha,100%
same,Post-emergence action against AMARE in %,Amaranthus retroflexus [1]; 20 g/ha,100%
same,Post-emergence action against AMARE in %,Amaranthus retroflexus [1]; 80 g/ha,100%
same,Pre-emergence action against ECHCG,Echinochloa crus-galli [2]; 80 g/ha,80%
same,Pre-emergence action against ECHCG,Echinochloa crus-galli [2]; 320 g/ha,100%
same,Pre-emergence action against SETVI,Setaria viridis [3]; 80 g/ha,100%
same,Pre-emergence action against SETVI,Setaria viridis [3]; 320 g/ha,100%
same,Pre-emergence action against VERPE,Veronica persica [4]; 80 g/ha,80%
same,Pre-emergence action against VERPE,Veronica persica [4]; 320 g/ha,90%
same,Post-emergence action against ECHCG in %,Echinochloa crus-galli [5]; 5 g/ha,90%
same,Post-emergence action against ECHCG in %,Echinochloa crus-galli [5]; 20 g/ha,100%
same,Post-emergence action against ECHCG in %,Echinochloa crus-galli [5]; 80 g/ha,100%
same,Pre-emergence action against ALOMY,Alopecurus myosuroides [6]; 80 g/ha,80%
same,Pre-emergence action against ALOMY,Alopecurus myosuroides [6]; 320 g/ha,100%
same,Pre-emergence action against AMARE,Amaranthus retroflexus [7]; 20 g/ha,90%
same,Pre-emergence action against AMARE,Amaranthus retroflexus [7]; 80 g/ha,100%
same,Pre-emergence action against AMARE,Amaranthus retroflexus [7]; 320 g/ha,100%
same,Pre-emergence action against VIOTR,Viola tricolor [8]; 20 g/ha,80%
same,Pre-emergence action against VIOTR,Viola tricolor [8]; 80 g/ha,100%
same,Pre-emergence action against VIOTR,Viola tricolor [8]; 320 g/ha,100%
same,Post-emergence action against ALOMY,Alopecurus myosuroides [9]; 5 g/ha,80%
same,Post-emergence action against ALOMY,Alopecurus myosuroides [9]; 20 g/ha,90%
same,Post-emergence action against ALOMY,Alopecurus myosuroides [9]; 80 g/ha,100%
same,Post-emergence action against LOLRI in %,Lolium rigidum [10],80%
same,Post-emergence action against POLCO in %,Polygonum convolvulus [11],80%
same,Post-emergence action against VIOTR in %,Viola tricolor [12]; 5 g/ha,100%
same,Post-emergence action against VIOTR in %,Viola tricolor [12]; 20 g/ha,100%
same,Post-emergence action against VIOTR in %,Viola tricolor [12]; 80 g/ha,100%
same,Pre-emergence action against PHBPU,Pharbitis purpurea [13],100%
same,Post-emergence action against MATIN in %,Matricaria inodora [14]; 5 g/ha,80%
same,Post-emergence action against MATIN in %,Matricaria inodora [14]; 20 g/ha,100%
same,Post-emergence action against MATIN in %,Matricaria inodora [14]; 80 g/ha,100%
same,Pre-emergence action against STEME,Stellaria media [15]; 20 g/ha,80%
same,Pre-emergence action against STEME,Stellaria media [15]; 320 g/ha,90%
same,Pre-emergence action against LOLRI,Lolium rigidum [16],90%
same,Pre-emergence action against ABUTH,Abutilon theophrasti [17]; 20 g/ha,100%
same,Pre-emergence action against ABUTH,Abutilon theophrasti [17]; 80 g/ha,100%
same,Pre-emergence action against ABUTH,Abutilon theophrasti [17]; Dosage column 320 g/ha (heading prints 3200 g/ha),100%
same,Pre-emergence action against CYPES,Cyperus esculentus [18]; 80 g/ha,80%
same,Pre-emergence action against CYPES,Cyperus esculentus [18]; 320 g/ha,90%
same,Post-emergence action against ABUTH,Abutilon theophrasti [19]; 5 g/ha,80%
same,Post-emergence action against ABUTH,Abutilon theophrasti [19]; 20 g/ha,100%
same,Post-emergence action against ABUTH,Abutilon theophrasti [19]; 80 g/ha,100%
same,Post-emergence action against CYPES in %,Cyperus esculentus [20]; 20 g/ha,80%
same,Post-emergence action against CYPES in %,Cyperus esculentus [20]; 80 g/ha,90%
same,Pre-emergence action against AVEFA,Avena fatua [21]; 80 g/ha,80%
same,Pre-emergence action against AVEFA,Avena fatua [21]; 320 g/ha,100%
same,Post-emergence action against AVEFA in %,Avena fatua [22]; 20 g/ha,100%
same,Post-emergence action against AVEFA in %,Avena fatua [22]; 80 g/ha,100%
same,Post-emergence action against HORMU in %,Hordeum murinum [23]; 5 g/ha,80%
same,Post-emergence action against HORMU in %,Hordeum murinum [23]; 20 g/ha,90%
same,Post-emergence action against HORMU in %,Hordeum murinum [23]; 80 g/ha,100%
same,Post-emergence action against SETVI in %,Setaria viridis [24]; 5 g/ha,100%
same,Post-emergence action against SETVI in %,Setaria viridis [24]; 20 g/ha,100%
same,Post-emergence action against SETVI in %,Setaria viridis [24]; 80 g/ha,100%
same,Pre-emergence action against MATIN,Matricaria inodora [25]; 20 g/ha,80%
same,Pre-emergence action against MATIN,Matricaria inodora [25]; 80 g/ha,90%
same,Pre-emergence action against MATIN,Matricaria inodora [25]; 320 g/ha,100%
same,Post-emergence action against PHBPU in %,Pharbitis purpurea [26]; 5 g/ha,90%
same,Post-emergence action against PHBPU in %,Pharbitis purpurea [26]; 20 g/ha,100%
same,Post-emergence action against PHBPU in %,Pharbitis purpurea [26]; 80 g/ha,100%
same,Pre-emergence action against POLCO,Polygonum convolvulus [27],100%
same,Post-emergence action against STEME in %,Stellaria media [28]; 5 g/ha,100%
same,Post-emergence action against STEME in %,Stellaria media [28]; 20 g/ha,100%
same,Post-emergence action against STEME in %,Stellaria media [28]; 80 g/ha,100%
same,Post-emergence action against VERPE in %,Veronica persica [29]; 20 g/ha,80%
same,Post-emergence action against VERPE in %,Veronica persica [29]; 80 g/ha,90%
same,Pre-emergence action against HORMU,Hordeum murinum [30],100%
